1 compound from patent US20150190369A1, “QUERCETIN-3-GLUCOSIDE AND USES THEREOF” (priority 2012, published 2015) can be followed below.

Entries after “also recorded” stand apart in the source; their conditions may differ.

In assay [1] the test system is LDLR. As to the kind of experiment: Immunoblotting for LDLR in MIN6 β-cells. It counts as cell-based, mouse. On the procedure:
The corresponding photographs of the immunoblotting results are also shown. MIN6 cells were incubated for 24 h in the presence of 16 μM Q3G. Cell lysates were analyzed by semi-quantitative immunoblotting using different antibodies successively.
(§1) Mouse insulinoma MIN6 cells were cultured in a 5% CO2-95% air atmosphere at 37° C. in DMEM medium containing 10% heat-inactivated fetal bovine serum, 1 mM Na-pyruvate, 2 mM L-glutamine, 25 mM D-glucose, and 28 μM β-mercaptoethanol. Q3G at a specific final concentration was supplemented to the culture medium and incubation was conducted for a selected length of time. Media were collected, spun at 600 g to sediment suspended cells, supplemented with 0.5 volumes of 3×RIPA-PIC (1×: 50 mM Tris-HCl, pH 8, 150 mM NaCl, 1% NP-40, 0.5% Na-deoxycholate and 0.1% SDS and PIC). Cells were lysed in 1×RIPA-PIC for immuno-blotting, or in RNA extraction buffer for qRT-PCR.
Cell lysates were fractionated by SDS-PAGE and electrophoretically transferred onto a polyvinylidene fluoride membrane. […] The signal was captured on X-ray film and immunoreactive bands analyzed by densitometry on a Syngene's ChemiGenius^2XE Bio Imaging System (Cambridge, Mass.) within the dynamic range of the instrument. […]

Assay [2] has as its system LDLR. As to the kind of experiment: Immunofluorescence flow cytometry of cell surface LDLR on Huh7 cells. Type of assay: cell-based, human. The note with it: Huh7 pretreated 24 h with 5 μM Q3G versus untreated. On the procedure:
Cells were seeded at 4×10^4 cell/10-cm dish in 3 ml of completed medium and incubated overnight. LPDS medium containing or not 5 μM Q3G was substituted and incubation resumed for 24 h. Subsequent steps were conducted with ice-cold solutions and at 4° C. Cell monolayers were rinsed with PBS, overlaid with PBS containing rabbit anti-LDLR antibody for 1 h, then with PBS containing Alexa Fluor-488-conjugated goat anti-rabbit Ig antibody for another 1 h. After a PBS rinse, the cells were overlaid with Versene, suspended in DMEM and analyzed in Benson-Dickenson XL flow cytometer at 492 nm and 520 nm excitation and emission wavelengths, respectively. Cell autofluorescence and non-specific fluorescence were assessed using cells not treated with the secondary and the primary antibody, respectively.
To be functionally relevant, Q3G-induced LDLR should accumulate at the cell surface of the hepatocyte cells where it could mediate LDL uptake. To verify the surface localization of the receptor, untreated and pretreated intact Huh7 cells were stained at 4° C. for LDLR by indirect immunofluorescence, and analyzed by fluorescence flow cytometry.

The next assay has as its system PCSK9 mRNA. Put plainly: qRT-PCR for PCSK9 mRNA in MIN6 β-cells. It counts as cell-based, mouse. More on the design: increase in PCSK9 mRNA: dose or concentration left out as unconfirmed. The note with it: MIN6, 24 h. On the procedure:
as §1
For the mouse studies, the levels of specific mRNAs were quantified in a PCR-based fluorogenic assay using the Taqman technology (Holland et al., 1991). Briefly, total RNA was extracted using the RNeasy extraction kit and reverse-transcribed into cDNA using random hexameric primers and the Superscript II RNase H-Reverse Transcriptase. The cDNA was used as a template to produce PCR amplicons using FastStart TaqMan ProbeMaster-Rox master mix, primer pairs and the appropriate fluorescent probes) in the Stratagene Mx3005P thermocycler. Standard curves were established using varying amounts of pre-quantified amplicons of each transcript. The level of mRNA for the TATA-box binding protein (TBP) was used for normalization.
MIN6 β-cells were incubated for 24 h in the presence of different concentrations of Q3G. Total RNA was extracted and analyzed by qRT-PCR for the levels of mRNA for PCSK9, LDLR, ABCA1 and ABCG1.
On the technique in general: Real-time PCR tracks product formation cycle by cycle.

Another assay concerns PCSK9. Put plainly: ELISA for PCSK9 secreted into medium by MIN6 β-cells. Type of assay: cell-based, mouse. The note with it: MIN6, 24 h, different concentrations of Q3G. On the procedure: FIG. 15 a graph illustrating the effect of exposure to Q3G on PCSK9 secretion in MIN6 β-cells. MIN6 cells were incubated for 24 h in the presence of the specified concentration of Q3G. Media were collected and assayed by ELISA for PCSK9 content.
as §1
The assays for PCSK9 and insulin were conducted as prescribed by kit manufacturers, using a Thermo Scientific plate reader. For example, PCSK9 levels in conditioned media were measured using the human PCSK9 ELISA kit from Circulex, as specified the manufacturer. […] After 15 min, the reaction was stopped with […] and the absorbance of the reaction mixtures measured by spectrophotometry at 450 nm. […]

For the compound `O=c1c(O[C@@H]2O[C@H](CO)[C@@H](O)[C@H](O)[C@H]2O)c(-c2ccc(O)c(O)c2)oc2cc(O)cc(O)c12` [Q3G, quercetin-3-O-β-D-glucoside], in the assay with LDLR [1] (MIN6, 24 h, 16 μM Q3G), the “amount of cell-surface LDL-receptor versus untreated MIN6 β-cells” value is on record as “approximately 1.4 times”. Further, in the assay on LDLR [1] (MIN6, Q3G-treated), the “relative amount of LDLR protein compared with mRNA” value is listed as “in concordance with the relative amounts of mRNA”. In addition, the “increase of LDLR cell surface density” value in the assay with LDLR [2] came to 1.7 fold. Moreover, the “effect on PCSK9 mRNA levels” value with PCSK9 mRNA (Q3G 8 mM and above) is on record as “increased”; with PCSK9 mRNA (Q3G up to 4 mM), “does not affect”. Moreover, the “increase in PCSK9 mRNA” value in the assay on PCSK9 mRNA (maximum Q3G concentration used) stood at 2.5 fold. For the same compound, the “PCSK9 in the medium (secretion)” value with PCSK9 was “paralleled that of the transcript; also recorded: stimulates”.
